In ChEMBL document CHEMBL3991601, “The target landscape of clinical kinase drugs” (Science, 2017):
Calls of active or inactive are those of the source. For most assays here, no stated cut-off is given here; in the data, actives have a measured Kd and inactives only a lower limit.

What was measured:
[1] = target: T1, AarF domain-containing protein kinase 1 (Homo sapiens, UniProt Q86TW2)
T1 sequence (Q86TW2 whole entry): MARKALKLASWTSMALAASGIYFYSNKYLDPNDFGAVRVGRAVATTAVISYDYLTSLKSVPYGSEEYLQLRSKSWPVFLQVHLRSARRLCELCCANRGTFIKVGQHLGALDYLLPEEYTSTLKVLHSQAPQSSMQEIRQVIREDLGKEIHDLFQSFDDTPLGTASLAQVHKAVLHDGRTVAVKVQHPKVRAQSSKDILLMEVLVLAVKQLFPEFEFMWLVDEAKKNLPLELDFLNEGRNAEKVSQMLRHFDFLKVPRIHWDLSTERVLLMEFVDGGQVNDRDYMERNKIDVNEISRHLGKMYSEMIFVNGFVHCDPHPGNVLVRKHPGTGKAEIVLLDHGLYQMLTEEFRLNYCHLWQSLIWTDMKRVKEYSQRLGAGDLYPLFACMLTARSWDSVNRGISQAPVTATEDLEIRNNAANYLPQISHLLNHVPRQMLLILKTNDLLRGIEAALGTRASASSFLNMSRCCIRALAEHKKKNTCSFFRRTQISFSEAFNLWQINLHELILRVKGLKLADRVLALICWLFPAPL

[2] = target: Glycogen synthase kinase-3 alpha (Homo sapiens, UniProt P49840)
[3] = target: Serine/threonine-protein kinase SIK3 (Homo sapiens, UniProt Q9Y2K2)
Deoxycytidine kinase = Deoxycytidine kinase (Homo sapiens, UniProt P27707)
[4] = target: T2, General transcription and DNA repair factor IIH helicase subunit XPD (Homo sapiens, UniProt P18074); conditions: read-out: Kd apparent; k-562, colo 205, sk-n-be(2) and mv-4-11
T2 sequence (P18074 whole entry): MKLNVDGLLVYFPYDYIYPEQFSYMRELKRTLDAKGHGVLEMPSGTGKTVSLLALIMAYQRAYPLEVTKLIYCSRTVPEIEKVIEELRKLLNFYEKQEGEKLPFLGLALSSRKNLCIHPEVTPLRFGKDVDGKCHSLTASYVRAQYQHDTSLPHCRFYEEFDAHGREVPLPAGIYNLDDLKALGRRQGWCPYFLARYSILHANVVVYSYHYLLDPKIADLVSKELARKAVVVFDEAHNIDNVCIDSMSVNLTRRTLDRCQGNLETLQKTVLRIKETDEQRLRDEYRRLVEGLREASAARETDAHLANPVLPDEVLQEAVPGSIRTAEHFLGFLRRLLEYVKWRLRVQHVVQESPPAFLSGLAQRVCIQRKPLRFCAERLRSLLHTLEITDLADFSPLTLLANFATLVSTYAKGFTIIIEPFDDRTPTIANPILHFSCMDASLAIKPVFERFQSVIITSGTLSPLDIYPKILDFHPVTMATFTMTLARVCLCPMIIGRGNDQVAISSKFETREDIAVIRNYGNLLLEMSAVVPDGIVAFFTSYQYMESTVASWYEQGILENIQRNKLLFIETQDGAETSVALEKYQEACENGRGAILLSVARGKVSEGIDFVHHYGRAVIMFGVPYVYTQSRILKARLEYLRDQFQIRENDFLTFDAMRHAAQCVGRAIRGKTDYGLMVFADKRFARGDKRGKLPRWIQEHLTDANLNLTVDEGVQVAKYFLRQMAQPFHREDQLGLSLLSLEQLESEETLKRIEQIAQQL

[5] = target: Platelet-derived growth factor receptor beta (Homo sapiens, UniProt P09619)
[6] = target: Epithelial discoidin domain-containing receptor 1 (Homo sapiens, UniProt Q08345)
TGF-beta receptor type-2 = TGF-beta receptor type-2 (Homo sapiens, UniProt P37173)
[7] = target: T3, Dual specificity mitogen-activated protein kinase kinase 3 (Homo sapiens, UniProt P46734)
T3 sequence (P46734 whole entry): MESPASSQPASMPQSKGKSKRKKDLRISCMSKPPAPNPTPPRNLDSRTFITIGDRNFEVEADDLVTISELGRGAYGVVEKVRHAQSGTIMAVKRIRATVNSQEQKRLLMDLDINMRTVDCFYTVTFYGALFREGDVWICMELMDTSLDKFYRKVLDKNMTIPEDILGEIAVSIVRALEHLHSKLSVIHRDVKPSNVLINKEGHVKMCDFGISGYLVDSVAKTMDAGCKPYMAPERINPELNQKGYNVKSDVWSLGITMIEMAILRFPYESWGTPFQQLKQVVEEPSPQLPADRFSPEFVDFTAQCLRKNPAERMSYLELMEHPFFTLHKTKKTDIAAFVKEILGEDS

[8] = target: Dual specificity mitogen-activated protein kinase kinase 1 (Homo sapiens, UniProt Q02750)
[9] = target: Tyrosine-protein kinase Yes (Homo sapiens, UniProt P07947)
[10] = target: Mitogen-activated protein kinase kinase kinase 20 (Homo sapiens, UniProt Q9NYL2)
[11] = target: Tyrosine-protein kinase ABL2 (Homo sapiens, UniProt P42684)

Chain of Deoxycytidine kinase (P27707 whole entry): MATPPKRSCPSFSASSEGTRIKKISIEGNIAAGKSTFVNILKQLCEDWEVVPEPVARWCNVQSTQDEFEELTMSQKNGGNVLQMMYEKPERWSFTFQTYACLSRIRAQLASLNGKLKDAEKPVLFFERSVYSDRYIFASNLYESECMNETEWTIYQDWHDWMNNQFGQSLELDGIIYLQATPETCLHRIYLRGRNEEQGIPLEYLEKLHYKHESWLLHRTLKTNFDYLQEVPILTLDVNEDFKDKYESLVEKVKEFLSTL
Chain of Tyrosine-protein kinase Yes (P07947 whole entry): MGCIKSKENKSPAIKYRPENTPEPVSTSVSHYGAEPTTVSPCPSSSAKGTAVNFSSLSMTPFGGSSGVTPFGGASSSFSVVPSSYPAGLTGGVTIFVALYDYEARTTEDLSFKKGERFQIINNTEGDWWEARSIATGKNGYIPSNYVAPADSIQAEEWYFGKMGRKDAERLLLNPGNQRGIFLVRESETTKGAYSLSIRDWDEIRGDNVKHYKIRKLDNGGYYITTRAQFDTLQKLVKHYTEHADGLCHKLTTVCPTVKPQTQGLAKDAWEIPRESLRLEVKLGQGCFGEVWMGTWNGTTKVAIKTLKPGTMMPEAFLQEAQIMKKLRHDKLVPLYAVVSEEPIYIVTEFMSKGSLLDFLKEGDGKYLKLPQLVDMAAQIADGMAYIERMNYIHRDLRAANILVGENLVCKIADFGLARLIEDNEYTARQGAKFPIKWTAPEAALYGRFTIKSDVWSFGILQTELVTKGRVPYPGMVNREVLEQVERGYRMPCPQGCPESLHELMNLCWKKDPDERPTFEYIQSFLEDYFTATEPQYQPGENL
Chain of Dual specificity mitogen-activated protein kinase kinase 1 (Q02750 whole entry): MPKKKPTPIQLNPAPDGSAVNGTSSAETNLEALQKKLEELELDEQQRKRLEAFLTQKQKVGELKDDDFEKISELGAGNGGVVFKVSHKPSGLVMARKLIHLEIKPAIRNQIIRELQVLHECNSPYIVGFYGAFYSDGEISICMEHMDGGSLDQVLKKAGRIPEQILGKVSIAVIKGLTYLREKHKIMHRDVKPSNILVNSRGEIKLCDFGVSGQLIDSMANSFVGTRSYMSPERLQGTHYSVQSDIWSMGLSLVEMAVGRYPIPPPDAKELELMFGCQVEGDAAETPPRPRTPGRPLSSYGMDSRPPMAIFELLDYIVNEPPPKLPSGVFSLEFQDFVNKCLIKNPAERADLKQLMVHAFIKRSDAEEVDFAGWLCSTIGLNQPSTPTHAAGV
Chain of Epithelial discoidin domain-containing receptor 1 (Q08345 whole entry, the tested form may be a part): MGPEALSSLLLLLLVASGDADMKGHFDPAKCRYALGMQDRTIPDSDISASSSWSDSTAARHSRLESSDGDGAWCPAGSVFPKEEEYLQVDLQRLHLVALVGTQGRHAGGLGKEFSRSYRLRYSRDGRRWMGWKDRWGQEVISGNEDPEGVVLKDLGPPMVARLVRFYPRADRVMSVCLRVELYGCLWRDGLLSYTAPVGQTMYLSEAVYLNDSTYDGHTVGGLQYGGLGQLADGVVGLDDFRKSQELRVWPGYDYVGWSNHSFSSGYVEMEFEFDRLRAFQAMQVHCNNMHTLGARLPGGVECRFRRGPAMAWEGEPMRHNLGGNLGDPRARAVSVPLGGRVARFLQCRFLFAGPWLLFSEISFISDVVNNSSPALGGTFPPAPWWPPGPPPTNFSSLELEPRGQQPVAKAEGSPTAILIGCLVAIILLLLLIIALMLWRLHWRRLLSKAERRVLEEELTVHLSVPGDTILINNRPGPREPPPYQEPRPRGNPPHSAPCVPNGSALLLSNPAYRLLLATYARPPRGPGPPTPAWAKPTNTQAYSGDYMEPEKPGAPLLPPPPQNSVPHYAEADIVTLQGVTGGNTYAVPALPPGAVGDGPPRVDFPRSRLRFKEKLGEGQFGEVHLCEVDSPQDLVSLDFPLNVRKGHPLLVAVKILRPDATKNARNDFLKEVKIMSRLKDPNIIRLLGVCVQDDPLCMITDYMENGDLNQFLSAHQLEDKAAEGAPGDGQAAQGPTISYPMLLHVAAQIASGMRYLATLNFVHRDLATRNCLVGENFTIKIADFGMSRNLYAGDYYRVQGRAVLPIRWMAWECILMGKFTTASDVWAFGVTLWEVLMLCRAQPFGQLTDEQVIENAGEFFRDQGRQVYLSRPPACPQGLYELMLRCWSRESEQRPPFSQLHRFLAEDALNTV
Chain of Mitogen-activated protein kinase kinase kinase 20 (Q9NYL2 whole entry): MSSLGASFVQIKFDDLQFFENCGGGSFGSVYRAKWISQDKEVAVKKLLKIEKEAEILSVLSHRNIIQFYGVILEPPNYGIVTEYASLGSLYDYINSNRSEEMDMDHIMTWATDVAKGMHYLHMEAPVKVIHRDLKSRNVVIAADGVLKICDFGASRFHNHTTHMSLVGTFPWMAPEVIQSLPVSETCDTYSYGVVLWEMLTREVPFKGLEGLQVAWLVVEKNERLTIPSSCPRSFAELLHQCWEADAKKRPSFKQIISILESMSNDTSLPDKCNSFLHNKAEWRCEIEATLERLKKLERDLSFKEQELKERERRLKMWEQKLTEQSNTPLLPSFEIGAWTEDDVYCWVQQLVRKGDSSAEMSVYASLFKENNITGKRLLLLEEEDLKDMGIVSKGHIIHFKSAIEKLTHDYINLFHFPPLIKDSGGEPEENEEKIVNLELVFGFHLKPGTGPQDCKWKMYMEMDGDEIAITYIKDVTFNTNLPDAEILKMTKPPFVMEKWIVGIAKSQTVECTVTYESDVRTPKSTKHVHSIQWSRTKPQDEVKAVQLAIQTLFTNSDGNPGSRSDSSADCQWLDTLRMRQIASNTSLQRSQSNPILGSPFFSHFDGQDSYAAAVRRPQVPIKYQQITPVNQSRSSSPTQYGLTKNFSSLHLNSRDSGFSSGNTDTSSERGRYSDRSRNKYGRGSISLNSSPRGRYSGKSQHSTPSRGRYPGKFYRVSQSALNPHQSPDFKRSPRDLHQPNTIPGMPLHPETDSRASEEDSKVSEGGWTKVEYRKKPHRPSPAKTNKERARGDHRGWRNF
Chain of Serine/threonine-protein kinase SIK3 (Q9Y2K2 whole entry): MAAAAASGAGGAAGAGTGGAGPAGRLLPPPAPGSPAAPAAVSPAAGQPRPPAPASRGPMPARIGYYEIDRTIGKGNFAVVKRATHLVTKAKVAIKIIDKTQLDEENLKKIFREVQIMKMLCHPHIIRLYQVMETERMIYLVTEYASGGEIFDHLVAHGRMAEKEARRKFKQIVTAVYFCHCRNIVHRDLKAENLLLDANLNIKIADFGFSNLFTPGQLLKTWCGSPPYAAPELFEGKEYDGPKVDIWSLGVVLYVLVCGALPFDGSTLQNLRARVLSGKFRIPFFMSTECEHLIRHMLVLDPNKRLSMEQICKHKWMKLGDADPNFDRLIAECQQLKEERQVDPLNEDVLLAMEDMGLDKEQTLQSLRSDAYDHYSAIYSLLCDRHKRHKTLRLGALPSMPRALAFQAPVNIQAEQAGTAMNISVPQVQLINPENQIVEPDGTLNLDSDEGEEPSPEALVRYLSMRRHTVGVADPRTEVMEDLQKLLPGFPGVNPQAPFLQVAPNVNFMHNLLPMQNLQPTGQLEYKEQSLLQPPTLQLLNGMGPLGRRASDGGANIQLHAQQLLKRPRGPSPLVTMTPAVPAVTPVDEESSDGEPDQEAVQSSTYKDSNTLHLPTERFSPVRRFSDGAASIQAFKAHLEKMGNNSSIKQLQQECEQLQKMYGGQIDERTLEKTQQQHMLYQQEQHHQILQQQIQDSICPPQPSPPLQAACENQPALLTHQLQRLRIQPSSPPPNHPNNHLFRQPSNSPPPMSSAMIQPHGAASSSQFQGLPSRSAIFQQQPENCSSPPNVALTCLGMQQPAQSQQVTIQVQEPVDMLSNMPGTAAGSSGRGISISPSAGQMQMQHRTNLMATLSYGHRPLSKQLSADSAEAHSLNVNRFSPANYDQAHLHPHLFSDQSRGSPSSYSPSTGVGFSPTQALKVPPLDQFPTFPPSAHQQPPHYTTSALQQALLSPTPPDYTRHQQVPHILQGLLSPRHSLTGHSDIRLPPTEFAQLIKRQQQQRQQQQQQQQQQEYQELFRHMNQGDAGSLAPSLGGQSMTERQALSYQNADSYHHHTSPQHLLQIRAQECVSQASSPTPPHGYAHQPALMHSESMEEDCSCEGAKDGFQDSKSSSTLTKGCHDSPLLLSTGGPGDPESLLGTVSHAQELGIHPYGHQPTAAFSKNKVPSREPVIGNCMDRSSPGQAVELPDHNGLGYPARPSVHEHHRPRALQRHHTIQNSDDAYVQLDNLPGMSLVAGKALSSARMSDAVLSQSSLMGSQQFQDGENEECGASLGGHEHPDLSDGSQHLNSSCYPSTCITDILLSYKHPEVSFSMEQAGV
Chain of Glycogen synthase kinase-3 alpha (P49840 whole entry): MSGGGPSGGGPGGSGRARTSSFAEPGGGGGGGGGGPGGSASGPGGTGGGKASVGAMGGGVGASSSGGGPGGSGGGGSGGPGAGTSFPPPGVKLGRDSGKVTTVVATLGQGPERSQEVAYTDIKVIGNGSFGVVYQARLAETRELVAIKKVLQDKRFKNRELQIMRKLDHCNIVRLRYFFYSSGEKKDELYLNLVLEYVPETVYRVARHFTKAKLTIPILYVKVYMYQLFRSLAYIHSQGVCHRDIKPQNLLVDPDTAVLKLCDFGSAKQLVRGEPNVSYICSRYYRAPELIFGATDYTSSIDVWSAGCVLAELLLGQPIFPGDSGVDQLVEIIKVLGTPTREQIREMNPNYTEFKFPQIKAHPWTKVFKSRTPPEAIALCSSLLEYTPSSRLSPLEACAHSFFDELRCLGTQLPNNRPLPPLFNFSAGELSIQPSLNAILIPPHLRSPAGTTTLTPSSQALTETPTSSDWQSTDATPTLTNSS

Kd [1] | Kd [2] | Kd [3] | Kd (Deoxycytidine kinase) | Kd [4] | Kd [5] | Kd [6] | Kd (TGF-beta receptor type-2) | Kd [7] | Kd [8] | Kd [9] | Kd [10] | Kd [11] | Structure (SMILES)
> 30 µM (inactive) | – | – | > 30 µM (inactive) | > 30 µM (inactive) | – | – | – | – | – | – | – | – | C[C@@H](Oc1cc(-n2cnc3ccc(CN4CCN(C)CC4)cc32)sc1C(N)=O)c1ccccc1C(F)(F)F [GSK-461364]
0.281 µM (active) | – | – | > 30 µM (inactive) | > 30 µM (inactive) | – | 0.067 µM (active) | – | > 30 µM (inactive) | – | 0.881 µM (active) | – | > 30 µM (inactive) | NC(=O)c1c(OCc2c(F)cc(Br)cc2F)nsc1NC(=O)NCCCCN1CCCC1 [OSI-632]
> 30 µM (inactive) | – | 9.65 µM (active) | > 30 µM (inactive) | > 30 µM (inactive) | – | > 30 µM (inactive) | > 30 µM (inactive) | > 30 µM (inactive) | – | > 30 µM (inactive) | – | > 30 µM (inactive) | CC(=O)NCC(=O)N1[C@@H]2CC[C@H]1c1ccc(Nc3ncc(C(F)(F)F)c(NC4CCC4)n3)cc12 [PF-03814735]
> 30 µM (inactive) | – | – | > 30 µM (inactive) | > 30 µM (inactive) | – | – | – | – | – | – | – | – | O=C(NOCCO)c1cc(CN2OCCCC2=O)c(F)c(F)c1Nc1ccc(I)cc1F [RO-4987655]

Second part, the compound before the results:

Structure (SMILES) | Kd [1] | Kd [2] | Kd [3] | Kd (Deoxycytidine kinase) | Kd [4] | Kd [5] | Kd [6] | Kd (TGF-beta receptor type-2) | Kd [7] | Kd [8] | Kd [9] | Kd [10] | Kd [11]
CC(=O)c1cnc2ccc(-c3cc(Cl)c(O)c(Cl)c3)nc2c1N[C@H]1CC[C@H](CN(C)C)CC1 | > 30 µM (inactive) | 0.087 µM (active) | 0.356 µM (active) | > 30 µM (inactive) | > 30 µM (inactive) | 0.103 µM (active) | 0.515 µM (active) | > 30 µM (inactive) | > 30 µM (inactive) | 0.968 µM (active) | > 30 µM (inactive) | 0.101 µM (active) | –
CCNC(=O)C#Cc1ccc2c(c1)NC(=O)/C2=C(\Nc1ccc(CN(C)C)cc1)c1ccccc1 | > 30 µM (inactive) | > 30 µM (inactive) | > 30 µM (inactive) | > 30 µM (inactive) | > 30 µM (inactive) | – | 0.469 µM (active) | > 30 µM (inactive) | > 30 µM (inactive) | – | 0.094 µM (active) | > 30 µM (inactive) | 1.48 µM (active)
COc1cc(Nc2ncc3c(n2)-c2ccc(Cl)cc2C(c2c(F)cccc2OC)=NC3)ccc1C(=O)O [ALISERTIB] | > 30 µM (inactive) | – | > 30 µM (inactive) | > 30 µM (inactive) | > 30 µM (inactive) | > 30 µM (inactive) | > 30 µM (inactive) | > 30 µM (inactive) | > 30 µM (inactive) | – | > 30 µM (inactive) | – | –
O=C(Nc1c[nH]nc1-c1nc2cc(CN3CCOCC3)ccc2[nH]1)NC1CC1 [AT-9283] | 0.559 µM (active) | 0.006 µM (active) | 4.11 µM (active) | > 30 µM (inactive) | > 30 µM (inactive) | > 30 µM (inactive) | – | – | > 30 µM (inactive) | > 30 µM (inactive) | 0.574 µM (active) | > 30 µM (inactive) | 1.08 µM (active)
CNC(=O)c1ccccc1Sc1ccc2c(/C=C/c3ccccn3)n[nH]c2c1 [AXITINIB] | > 30 µM (inactive) | – | – | > 30 µM (inactive) | > 30 µM (inactive) | – | – | – | – | – | – | – | –
Cn1cc(C2=C(c3cn(C4CCN(Cc5ccccn5)CC4)c4ccccc34)C(=O)NC2=O)c2ccccc21 [ENZASTAURIN] | > 30 µM (inactive) | – | – | > 30 µM (inactive) | > 30 µM (inactive) | – | – | – | – | – | – | – | –
Cc1[nH]c(/C=C2\C(=O)Nc3ccccc32)c(C)c1CCC(=O)O [ORANTINIB] | > 30 µM (inactive) | – | > 30 µM (inactive) | > 30 µM (inactive) | > 30 µM (inactive) | 0.744 µM (active) | > 30 µM (inactive) | > 30 µM (inactive) | > 30 µM (inactive) | 3.43 µM (active) | > 30 µM (inactive) | – | > 30 µM (inactive)
N#CC[C@H](C1CCCC1)n1cc(-c2ncnc3[nH]ccc23)cn1 [RUXOLITINIB] | > 30 µM (inactive) | – | – | > 30 µM (inactive) | > 30 µM (inactive) | – | – | – | – | – | – | – | –
